# Laboratory results: US20060062729A1, “Enhanced ligand binding to neurotensin receptors” (priority 2004, published 2006)
# Values joined by “and” are separate entries in the source; they are usually repeats but may differ in a detail not shown here. Equal values may be shown once. Read-outs that look alike come from different tables or passages of the source. Non-standard residues stand in square brackets, D forms with d. Residues, ends and D or L forms follow the SMILES beside them. Tyr(3-I) = N[C@@H](Cc1ccc(O)c(I)c1)C(=O)O; pGlu = O=C1CC[C@@H](C(=O)O)N1; Nle = CCCC[C@H](N)C(=O)O
# Experiments:
# NTR1 [1] = target: T1, NTR1 (Homo sapiens, UniProt P30989); assay: ^125I-NT binding to PC3 cells; details: for maximal increase in NT binding to PC3 cells: as much as / up to, dose-response
# T1 sequence (P30989 whole entry): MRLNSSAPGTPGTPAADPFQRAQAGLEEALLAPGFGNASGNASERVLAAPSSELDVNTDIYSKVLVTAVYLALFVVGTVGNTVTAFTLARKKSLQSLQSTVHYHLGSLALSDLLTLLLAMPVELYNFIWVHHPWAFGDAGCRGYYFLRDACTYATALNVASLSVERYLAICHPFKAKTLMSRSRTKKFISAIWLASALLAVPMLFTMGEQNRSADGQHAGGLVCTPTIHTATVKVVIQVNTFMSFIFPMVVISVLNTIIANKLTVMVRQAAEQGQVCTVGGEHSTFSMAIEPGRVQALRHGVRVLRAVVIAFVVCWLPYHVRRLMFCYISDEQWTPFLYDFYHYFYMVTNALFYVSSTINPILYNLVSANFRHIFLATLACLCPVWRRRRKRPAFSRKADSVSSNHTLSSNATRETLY
# NTR1 [2] = target: T1, NTR1; assay: NT-induced IP formation in PC3 cells; assay type: cell-based; design: Ab-NTR1 detected two major bands in extracts of PC3 cells, the parent protein of 50 kDa; endogenous in cells; host or cells: PC3 cells (ATCC)
# bombesin receptor = target: T2, bombesin receptor (Homo sapiens, UniProt P30550); assay: ^125I-[Nle^14]-bombesin binding to PC3 cells; details: for Specific Binding (% control) of ^125I-[Nle14]-bombesin: 37° C.
# T2 construct: endogenous in cells; host or cells: PC3 cells (ATCC)
# T2 sequence (P30550 whole entry): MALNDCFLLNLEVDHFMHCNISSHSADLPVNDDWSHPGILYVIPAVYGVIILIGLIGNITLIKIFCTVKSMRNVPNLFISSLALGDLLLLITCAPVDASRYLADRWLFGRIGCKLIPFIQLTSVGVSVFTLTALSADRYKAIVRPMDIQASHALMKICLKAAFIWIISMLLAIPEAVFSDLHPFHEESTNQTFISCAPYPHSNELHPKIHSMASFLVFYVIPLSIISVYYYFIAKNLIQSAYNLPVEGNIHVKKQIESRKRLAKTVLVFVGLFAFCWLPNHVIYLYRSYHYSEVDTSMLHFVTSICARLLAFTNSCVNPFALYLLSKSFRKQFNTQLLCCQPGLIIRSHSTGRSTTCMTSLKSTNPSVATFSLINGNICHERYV
# NTR1 [3] = target: T1, NTR1; assay: ^125I-NT binding to isolated PC3 cell membranes; design: Ab-NTR1 detected two major bands in extracts of PC3 cells, the parent protein of 50 kDa; endogenous in cells; host or cells: PC3 cells (ATCC)
# PC3 cells = assay: Ionomycin-stimulated IP formation in PC3 cells; assay type: cell-based
# [4] = general reducing agents and antioxidants
# [5] = read-out: NT Binding EC50, [agent] giving 75% increase in NT binding
# [6] = 6 μM enzyme inhibitor, PC3 cells
# [7] = 20 μM enzyme inhibitor, PC3 cells
# [8] = 60 μM enzyme inhibitor, PC3 cells
# [9] = vitamin-like antioxidants at 20-180 μM, n=3
compound,measurement,setting,value
"O[C@H](CS)[C@H](O)CS (racemic) [DTT, dithiothreitol]",effect on NT binding,NTR1 [1]; [4],not much affected
Oc1cc(O)c2c(c1)O[C@H](c1ccc(O)c(O)c1)[C@@H](O)C2 [(+)-catechin],effect on NT binding,"NTR1 [1]; used at 10-100 μM, n=3",without effect
"CC(=O)OCOC(=O)CN(CC(=O)OCOC(C)=O)c1ccccc1OCCOc1ccccc1N(CC(=O)OCOC(C)=O)CC(=O)OCOC(C)=O [BAPTA-AM, 1,2-bis(o-aminophenoxy)ethane-N,N,N′,N′-tetraacetic acid tetra(acetoxymethyl) ester]",effect on NT binding,"NTR1 [1]; chelation of intracellular Ca^2+, 50 μM BAPTA-AM",nor was NT binding altered
"COc1ccc(O)c(C(C)(C)C)c1 [BHA, butylated hydroxy anisole]",EC50,NTR1 [1]; [5],110 µM
COC(=O)C1=C(C)NC(C)=C([N+](=O)[O-])C1c1ccccc1C(F)(F)F (stereo not drawn) [BayK-8644],EC50,NTR1 [1]; [5],16 µM
"O=C(/C=C/c1ccc(O)c(O)c1)OCCc1ccccc1 [CAPE, caffeic acid phenethyl ester]",EC50,NTR1 [1],34 µM
same,maximal increase in NT binding to PC3 cells,NTR1 [1],≤ 2.8 fold
same,IC50,NTR1 [2],18 µM
"N#CC(C#N)=NNc1cccc(Cl)c1 [CCCP, Carbonyl cyanide 3-chlorophenylhydrozone]",EC50,NTR1 [1],23 µM
"COc1ccc([C@@H]2Sc3ccccc3N(CCN(C)C)C(=O)[C@@H]2OC(C)=O)cc1 [Diltiazem, diltiazem]",maximal increase in NT binding to PC3 cells,NTR1 [1],≤ 1.4 fold
c1ccc2c(c1)[I+]c1ccccc1-2 [Diphenylene iodonium],EC50,NTR1 [1],61 µM
same,IC50,"NTR1 [2]; [agent] giving 50% decrease in IP formation, read-out: IP Formation IC50",35 µM
"O=C(O)CN(CCOCCOCCN(CC(=O)O)CC(=O)O)CC(=O)O [EGTA, ethylene glycol tetra-acetic acid]",increase in NT binding,NTR1 [1],38±6 % increase
same,effect on NT-induced IP formation,NTR1 [2]; Ca^2+-chelator added,inhibited
COC(=O)c1c(C)[nH]c(C)c1C(=O)c1ccccc1Cc1ccccc1 [FPL-64176],EC50,NTR1 [1]; [5],29 µM
"Cc1cc2c(C(C)C)c(O)c(O)c(C=O)c2c(O)c1-c1c(C)cc2c(C(C)C)c(O)c(O)c(C=O)c2c1O [Gossypol, gossypol]",NT Binding Efficacy % increase,NTR1 [1]; LOX blockers,170 % increase
same,IC50,"NTR1 [2]; [agent] that decreased IP formation by 40%, read-out: IP Formation IC50",20 µM
CCCc1c(OCCCCc2nnn[nH]2)ccc(C(C)=O)c1O [LY171883],NT Binding Efficacy % increase,NTR1 [1]; LOX blockers,157 % increase
same,EC50,"NTR1 [1]; read-out: NT Binding EC50, [agent] giving 100% increase in NT binding",34 µM
CC(=O)N[C@@H](CS)C(=O)O [N-acetyl cysteine],effect on NT binding,"NTR1 [1]; used at 1-3 mM, n=3",without effect
"CC(Cc1ccc(O)c(O)c1)C(C)Cc1ccc(O)c(O)c1 (stereo not drawn) [NDGA, Nordihydroguaiaretic acid]",Specific Binding (% control) of ^125I-[Nle14]-bombesin,bombesin receptor; 12 μM LOX blocker,110 ± 3 % control
same,Specific Binding (% control) of ^125I-[Nle14]-bombesin,bombesin receptor; 60 μM LOX blocker,127 ± 4 % control
same,Specific NT-Binding (% control),NTR1 [3]; 10 μM LOX pathway blocker,110 ± 5 % control
same,Specific NT-Binding (% control),NTR1 [3]; 25 μM LOX pathway blocker,121 ± 8 % control
same,Specific NT-Binding (% control),NTR1 [3]; 75 μM LOX pathway blocker,132 ± 10 % control
"CC1=C(/C=C/C(C)=C/C=C/C(C)=C/C(=O)O)C(C)(C)CCC1 [Retinoic Acid, retinoic acid]",Specific NT-Binding (% control),NTR1 [3]; 10 μM LOX pathway blocker,102 ± 3 % control
same,Specific NT-Binding (% control),NTR1 [3]; 25 μM LOX pathway blocker,115 ± 4 % control
same,Specific NT-Binding (% control),NTR1 [3]; 75 μM LOX pathway blocker,142 ± 8 % control
CCCCCC(O)c1cccc(OCc2ccc3ccccc3n2)c1 (stereo not drawn) [Rev5901],Specific Binding (% control) of ^125I-[Nle14]-bombesin,bombesin receptor; 12 μM LOX blocker,107 ± 3 % control
same,Specific Binding (% control) of ^125I-[Nle14]-bombesin,bombesin receptor; 60 μM LOX blocker,119 ± 3 % control
same,NT Binding Efficacy % increase,NTR1 [1]; LOX blockers,160 % increase
same,maximal increase in NT binding to PC3 cells,NTR1 [1],≤ 2.4 fold
same,Specific NT-Binding (% control),NTR1 [3]; 10 μM LOX pathway blocker,101 ± 4 % control
same,Specific NT-Binding (% control),NTR1 [3]; 25 μM LOX pathway blocker,113 ± 5 % control
same,Specific NT-Binding (% control),NTR1 [3]; 75 μM LOX pathway blocker,110 ± 5 % control
C[S+]([O-])c1ccc(-c2nc(-c3ccncc3)c(-c3ccc(F)cc3)[nH]2)cc1 (stereo not drawn) [SB203580],Specific NT-Binding (% control),NTR1 [1]; [6],108 ± 8 % control
same,Specific NT-Binding (% control),NTR1 [1]; [7],116 ± 7 % control
same,Specific NT-Binding (% control),NTR1 [1]; [8],125 ± 9 % control
COc1ccc(CCCOC(Cn2ccnc2)c2ccc(OC)cc2)cc1 (stereo not drawn) [SKF-96365],Specific Binding (% control) of ^125I-[Nle^14]-bombesin,bombesin receptor; 12 μM agent,99 ± 2 % control
same,Specific Binding (% control) of ^125I-[Nle^14]-bombesin,bombesin receptor; 60 μM agent,106 ± 4 % control
N#CC(=C(/N)Sc1ccccc1N)/C(C#N)=C(\N)Sc1ccccc1N [U0126],Specific NT-Binding (% control),NTR1 [1],118 ± 6 % control and 108 ± 6 % control and 120 ± 9 % control
"COc1ccc(CCN(C)CCCC(C#N)(c2ccc(OC)c(OC)c2)C(C)C)cc1OC (stereo not drawn) [Verapamil, verapamil]",Specific Binding (% control) of ^125I-[Nle^14]-bombesin,bombesin receptor; 12 μM agent,104 ± 4 % control
same,Specific Binding (% control) of ^125I-[Nle^14]-bombesin,bombesin receptor; 60 μM agent,104 ± 4 % control
CCCC[C@H](NC(=O)[C@H](CC(C)C)NC(=O)[C@H](Cc1c[nH]cn1)NC(=O)CNC(=O)[C@@H](NC(=O)[C@H](C)NC(=O)[C@H](Cc1c[nH]c2ccccc12)NC(=O)[C@H](CCC(N)=O)NC(=O)[C@H](CC(N)=O)NC(=O)CNC(=O)[C@H](Cc1ccc(O)c(I)c1)NC(=O)[C@H](CCCNC(=N)N)NC(=O)[C@H](CCC(N)=O)NC(=O)[C@@H]1CCC(=O)N1)C(C)C)C(N)=O [^125I-[Nle^14]-bombesin] ([pGlu]QR[Tyr(3-I)]GNQWAVGHL[Nle]-NH2; C-terminus assumed),Specific Binding (% of total),bombesin receptor; 10^5 cpm ^125I-ligand,95 % of total
same,Bmax,bombesin receptor; Scatchard analysis,1016 ± 64 fmol/mg
O=C1O[C@H]([C@@H](O)CO)C(O)=C1O [ascorbic acid],effect on NT binding,NTR1 [1]; [4],not much affected
same,effect on NT binding,NTR1 [1]; [9],ineffective
O=c1oc2c(O)c(O)cc3c(=O)oc4c(O)c(O)cc1c4c23 [ellagic acid],effect on NT binding,"NTR1 [1]; used at 10-100 μM, n=3",without effect
Fc1ccc(C(c2ccc(F)cc2)N2CCN(C/C=C/c3ccccc3)CC2)cc1 [flunarizine],effect on NT binding,NTR1 [1]; less specific CCBs,only modest effects
N[C@@H](CCC(=O)N[C@@H](CS)C(=O)NCC(=O)O)C(=O)O [glutathione],effect on NT binding,"NTR1 [1]; used at 1-3 mM, n=3",without effect
COc1ccc2c(c1)c(CC(=O)O)c(C)n2C(=O)c1ccc(Cl)cc1 [indomethacin],Specific NT-Binding (% control),NTR1 [1]; [6],109 ± 4 % control
same,Specific NT-Binding (% control),NTR1 [1]; [7],95 ± 6 % control
same,Specific NT-Binding (% control),NTR1 [1]; [8],113 ± 7 % control
C[C@H](CCC(=O)O)C[C@H](C)C[C@H](C)C(=O)/C=C(\O)[C@H](C)C[C@H](C)C/C=C/[C@@H](C)[C@@H](O)[C@@H](C)[C@@H](O)C[C@@H]1CC[C@@](C)([C@H]2CC[C@@](C)([C@@H](C)O)O2)O1 [ionomycin],IP formation (% control),PC3 cells; 2 μM ionomycin,139±6%
same,IP formation (% control),PC3 cells; 10 μM ionomycin,157±5 % control
same,IP formation (% control),PC3 cells; 20 μM ionomycin,324±14%
same,IP formation (% control),PC3 cells; 25 μM ionomycin,322±11 % control
same,share of the NT response reproduced,PC3 cells; IP formation,~63%
same,reversal of NIF enhancement of NT binding,NTR1 [1]; 20 μM ionomycin,not reversed
Clc1ccc(COC(Cn2ccnc2)c2ccc(Cl)cc2Cl)c(Cl)c1 (stereo not drawn) [miconazole],NT Binding Efficacy % increase,NTR1 [1]; maximal % increase in NT binding observed for each agent,75 % increase
same,IP Formation Efficacy (% decrease),NTR1 [2]; maximal % decrease in NT-induced IP formation,54 % decrease
Cc1ncc(CO)c(CO)c1O [pyridoxine],effect on NT binding,NTR1 [1]; [4],not much affected
same,effect on NT binding,NTR1 [1]; [9],ineffective
O=c1c(O)c(-c2ccc(O)c(O)c2)oc2cc(O)cc(O)c12 [quercetin],effect on NT binding (figure legend),NTR1 [1]; FIG. 21A,enhanced NT-binding to NTR
same,effect on NT-induced IP formation (figure legend),NTR1 [2]; FIG. 21B,inhibited NT-induced IP formation
Cc1cc2nc3c(=O)[nH]c(=O)nc-3n(C[C@H](O)[C@H](O)[C@H](O)CO)c2cc1C [riboflavin],effect on NT binding,NTR1 [1]; [4],not much affected
same,effect on NT binding,NTR1 [1]; [9],ineffective
C=C(C)[C@H]1Cc2c(ccc3c2O[C@@H]2COc4cc(OC)c(OC)cc4[C@@H]2C3=O)O1 [rotenone],EC50,NTR1 [1],38 µM
[BH4-].[Na+] [sodium borohydride],effect on NT binding,NTR1 [1]; [4],not much affected
same,effect on NT binding,"NTR1 [1]; used at 1-3 mM, n=3",without effect
Cc1ncc(C[n+]2csc(CCO)c2C)c(N)n1 [thiamine],effect on NT binding,NTR1 [1]; [4],not much affected
same,effect on NT binding,NTR1 [1]; [9],ineffective
CN1CCN(CCCN2c3ccccc3Sc3ccc(C(F)(F)F)cc32)CC1 [trifluoperazine],effect on NT binding,NTR1 [1]; less specific CCBs,only modest effects
Cc1c(C)c2c(c(C)c1O)CCC(C)(C(=O)O)O2 (stereo not drawn) [trolox],effect on NT binding,NTR1 [1]; [4],not much affected
same,effect on NT binding,"NTR1 [1]; used at 10-100 μM, n=3",without effect
Cc1c(C)c2c(c(C)c1O)CC[C@@](C)(CCC[C@H](C)CCC[C@H](C)CCCC(C)C)O2 [α-tocoferol],effect on NT binding,NTR1 [1]; [9],ineffective
CC1=C(/C=C/C(C)=C/C=C/C(C)=C/C=C/C=C(C)/C=C/C=C(C)/C=C/C2=C(C)CCCC2(C)C)C(C)(C)CCC1 [β-carotene],effect on NT binding,NTR1 [1]; [9],ineffective
(−)-epigallocatechin gallate,effect on NT binding,"NTR1 [1]; used at 10-100 μM, n=3",without effect
